Holding throughout (format): in vivo, Sprague-Dawley rats
In one assay the test system is ventral horn motoneurons. Put plainly: Ventral horn neuron and motoneuron analysis (cresyl violet, NeuN) after SCI. As for the experimental part:
(§1) Adult females Sprague-Dawley rats aged 11 weeks (220-250 g) were anesthetized with pentobarbital (40 mg/kg i.p.). When unresponsive, the vertebral column was exposed and a laminectomy carried out at T8-T9 levels. Rostral T7 and caudal T10 vertebral bodies were clamped with Adson stabilizing forceps, and carefully adjusted to level the spinal cord in the horizontal plane. A contusion injury was performed using the Infinite Horizon impactor device (Precision Scientific Instruments, Lexington, KY). The stainless steel impounder tip was placed at 3-4 mm above the exposed spinal cord, and then a fast impact produced applying forces of 150 or 250 kilodynes (KDyn) to the exposed spinal cord. The wound was sutured with 5-0 silk thread in the muscular plane and the skin was closed with small clips and disinfected with povidone iodine solution. Sham-operated animals received the same surgical procedure but sustained no impact injury; the spinal cord was left exposed for 5 min. The animals were maintained in a warm environment until full recovery, and received preventive antibiotic (amoxicyline) and analgesic (buprenorphine) treatment. All animals were kept under standard conditions of light and temperature and fed with food and water ad libitum. The procedures involving animals were approved by the Ethics Committee of our institution, and followed the European Communities Council Directive 86/609/EEC. […]
Motoneurons were identified by their localization in the lateral ventral horn of spinal cord sections stained with cresyl violet and were counted following a method published elsewhere (Grossman et al, 2001) by size and morphological strict criteria. […] Only motoneurons with diameter larger than one square, i.e. ranging from 30 to 70 (m, and with a prominent nucleolus and being polygonal in shape were counted. The mean number of motoneurons per section was calculated. […]

The test system of the next assay is axons. Put plainly: Immunohistochemistry of axons (RT97 neurofilament, 5-HT) after SCI. As for the experimental part: as §1, with “libitum.” for “libitum. The procedures involving animals were approved by the Ethics Committee of our institution, and followed the European Communities Council Directive 86/609/EEC.”
The next assay concerns P-eIF2α. The experiment in a line: Western blot of phospho-eIF2α in spinal cord after contusion SCI. The conditions noted are these: whether higher in VPA-treated injured spinal cords than in vehicle-treated ones. As for the experimental part: as §1, with “min.” for “min. The animals were maintained in a warm environment until full recovery, and received preventive antibiotic (amoxicyline) and analgesic (buprenorphine) treatment. All animals were kept under standard conditions of light and temperature and fed with food and water ad libitum. The procedures involving animals were approved by the Ethics Committee of our institution, and followed the European Communities Council Directive 86/609/EEC.”
Rats were re-anesthetised and decapitated at 3 dpo for sample preparation. […] After clearance, protein concentration was measured by the BCA method assay (BCA Protein Assay kit, Pierce). […] The membrane was visualized by enhanced chemiluminiscence (ECL) method and the images analyzed with Gene Snap and Gene Tools software, and Gene Genome apparatus (Syngene). […]

In another assay the test system is tibialis anterior muscle. The experiment in a line: Electrophysiological tests (H/M ratio, motor evoked potentials) after spinal cord contusion. As for the experimental part: Adult females Sprague-Dawley rats aged 11 weeks (220-250 g) were anesthetized with pentobarbital (40 mg/kg i.p.). When unresponsive, the vertebral column was exposed and a laminectomy carried out at T8-T9 levels. Rostral T7 and caudal T10 vertebral bodies were clamped with Adson stabilizing forceps, and carefully adjusted to level the spinal cord in the horizontal plane. A contusion injury was performed using the Infinite Horizon impactor device (Precision Scientific Instruments, Lexington, KY). The stainless steel impounder tip was placed at 3-4 mm above the exposed spinal cord, and then a fast impact produced applying forces of 150 or 250 kilodynes (KDyn) to the exposed spinal cord. The wound was sutured with 5-0 silk thread in the muscular plane and the skin was closed with small clips and disinfected with povidone iodine solution. Sham-operated animals received the same surgical procedure but sustained no impact injury; the spinal cord was left exposed for 5 min. The animals were maintained in a warm environment until full recovery, and received preventive antibiotic (amoxicyline) and analgesic (buprenorphine) treatment. All animals were kept under standard conditions of light and temperature and fed with food and water ad libitum. The procedures involving animals were approved by the Ethics Committee of our institution, and followed the European Communities Council Directive 86/609/EEC.
VPA was intraperitoneally administered at an initial dose of 150 mg/kg by 3 h after surgery, and then a dose of 300 mg/Kg either every 24 h or every 12 h during the first week post-surgery, following by a dose of 300 mg/Kg every 24 h for the next two weeks. […]
Electrophysiological tests were performed at 14 and 28 days after operation. […] The H/M amplitude ratio was calculated. Motor evoked potentials (MEPs) were elicited by transcranial stimulation with two needle electrodes placed subcutaneously over the skull, delivering pulses of 0.1 ms duration and 25 mA intensity, and recorded from the tibialis anterior muscle (Garcia-Alias et al., 2003).

Consider `CCCC(CCC)C(=O)O` [VPA, 2-propylpentanoic acid], for which, in the assay on ventral horn motoneurons (35 days, vs saline), the “lesions in the sections distal to the epicenter” value was “fewer lesions”. Further, in the assay with ventral horn motoneurons (cresyl violet sections, especially caudal side, did not reach statistical significance), the “length of spinal cord devoid of motoneurons” value is “A reduction”. The “number of NeuN neurons” value in the assay with ventral horn motoneurons (ventral horn, distal to the epicenter) is listed as “more abundant”. Further, the “density of axonal profiles” value in the assay with axons (anti-neurofilament antibody RT97, rostral and caudal to the lesion) is recorded as “increased density”. For the same compound, in the assay with axons (rostral and caudal to the lesion), the “number of serotonin (5-HT)-positive axons” value is “increased”. The “levels of P-eIF2α” value in the assay with P-eIF2α is “not”. The “mean amplitudes of MEPs” value in the assay on tibialis anterior muscle (14 and 28 days postlesion, vs group control) was “slightly higher”. Further, the “mean H/M amplitude ratio” value with tibialis anterior muscle (14 days, injured rats) is listed as “about 9%”; in the assay on tibialis anterior muscle (28 days, control group 20%), 16%.

The values are drawn from patent EP2181708A1, “Use of Valproate for reducing CHOP levels, particularly in a mammal having SCI” (Universitat Autonoma de Barcelona, priority 2008, dated 2010).
